Measurements published in US5591741A, “Fungicidal spiroheterocyclic derivatives” (American Cyanamid Company, priority 1993, dated 1997).

Tests used:
[1] = system: Erysiphe graminis f.sp. hordei; experiment: Activity against barley powdery mildew, direct therapeutic (EGT); format: in vivo; settings: direct therapeutic foliar spray, 600 ppm, up to 7 days
Summary of the method: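 A curative spray at 600 ppm was applied to single-leaf Golden Promise barley inoculated with powdery mildew conidia the previous day. After up to 7 days at 18 °C and 40% humidity, disease control was rated from percent leaf area sporulating relative to untreated or diluent-sprayed controls.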

Venturia inaequalis = experiment: Activity against apple scab in-vitro (VII); format: cell-based; settings: 10 ppm, 10 days, 20° C., mycelial growth
Summary of the method: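 V. inaequalis propagules (5×10^4/ml, malt agar-grown) were exposed in half-strength PDB to 10 ppm final test compound delivered in acetone. Growth was scored after incubation for 10 days at 20° C, as a rating relative to untreated or diluent-sprayed controls.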

[2] = system: Erysiphe graminis f.sp. hordei; experiment: Direct protectant activity against barley powdery mildew (EGP); format: in vivo; settings: direct protectant foliar spray, 8 days
Summary of the method: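 Rating reflects percentage of leaf area with sporulation compared with untreated or diluent-sprayed controls. Protectant spray was applied to single-leaf barley (cv Golden Promise) 24 h before conidia inoculation. Plants were kept at 18 °C and 40% RH throughout, with 8 days of disease development.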

Phytophthora infestans = format: in vivo; settings: tomato, direct protectant foliar spray
Alternaria solani = experiment: Activity against tomato early blight (AS); format: in vivo; settings: Table VI; tomato seedlings, contact prophylactic foliar spray, 4 days
Summary of the method: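 Plants were challenged with A. solani conidia (10^4 spores/ml) 24 h after a protective foliar spray of compound in 50:50 acetone/water plus 0.04% Tween 20. Held humid at 21° C for 4 days, then percent leaf area with lesions was scored as a rating relative to controls.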

Plasmopara viticola = experiment: Antisporulant activity against vine downy mildew (PVA); format: in vivo; settings: vine leaves, antisporulant foliar spray, 600 ppm, 750 l/ha
Summary of the method: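 Cabernet Sauvignon vines (~8 cm) inoculated on lower leaf surfaces with 5×10^4 zoosporangia/ml, held 24 h at 21° C high humidity then 24 h glasshouse. Infected leaves sprayed underside with 600 ppm compound in 1:1 water/acetone, 0.04% Tween 20, 750 l/ha; 96 h glasshouse, 24 h humidity. Sporulating leaf area rated versus control.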

Leptosphaeria nodorum = experiment: Activity against wheat leafspot (LN); format: in vivo; settings: direct therapeutic foliar spray, 600 ppm, 6-8 days
Summary of the method: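 Therapeutic foliar spray: compound at 600 ppm applied to single-leaf wheat (cv Norman) 24 h after inoculation with 1.5×10^6 conidia/ml. Disease control scored after 6-8 days at 22° C and 70% humidity as lesions per leaf versus untreated or diluent-sprayed controls.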

Pyricularia oryzae = format: in vivo; settings: rice seedlings, direct therapeutic foliar spray, 600 ppm, 4-5 days
Rhizoctonia solani = experiment: Activity against Rhizoctonia in-vitro (RSI); format: cell-based; settings: 10 ppm, 10 days, 20° C., mycelial growth
Summary of the method: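 Compound at a final 10 ppm (acetone vehicle) in half-strength PDB, inoculated with 5×10^4 fragments/ml of shaken-culture R. solani mycelium. After incubation at 20° C for 10 days, growth scored as a rating versus untreated or diluent-treated controls.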

Botrytis cinerea = experiment: Direct protectant activity against broad bean grey mould (BCB); format: in vivo; settings: direct protectant foliar spray, 600 ppm, 4 days
Summary of the method: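 Protectant foliar test: lesion coverage assessed 4 days after inoculation and rated relative to untreated or diluent-sprayed plants. Compound applied at 600 ppm to cv The Sutton leaves 24 h before 10^6 conidia/ml suspension; incubation at 22 °C in high humidity.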

[3] = system: Pseudocercosporella herpotrichoides; experiment: Activity against wheat eyespot in-vitro (PHI); format: cell-based; settings: 10 ppm, 10 days, 20° C., mycelial growth
Summary of the method: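 Mycelial growth was scored after 10 days at 20 °C against untreated or diluent controls. The broth was half-strength potato dextrose, holding 10 ppm test compound (from acetone) and 5×10^4 fragments/ml of the eyespot fungus.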

CC(C)CNC1COC2(CCC(C(C)(C)C)CC2)C1 (centres unmarked) [Compound 66]
disease control rating EGT [1]: 2 (greater than 80% disease control)
disease control rating VII (Venturia inaequalis): 0 (less than 50% disease control)
disease control rating EGP [2]: 2 (greater than 80% disease control)
disease control rating PIP (Phytophthora infestans): 0 (less than 50% disease control)
disease control rating AS (Alternaria solani): 0 (less than 50% disease control)
disease control rating PVA (Plasmopara viticola): 0 (less than 50% disease control)
disease control rating LN (Leptosphaeria nodorum): 0 (less than 50% disease control)
disease control rating PO (Pyricularia oryzae): 0 (less than 50% disease control)
disease control rating RSI (Rhizoctonia solani): 0 (less than 50% disease control)
disease control rating BCB (Botrytis cinerea): 2 (greater than 80% disease control)
disease control rating PHI [3]: 0 (less than 50% disease control)

CN(C)C1COC2(CCC(C(C)(C)C)CC2)C1 (centres unmarked) [Compound 67]
disease control rating EGT [1]: 2 (greater than 80% disease control)
disease control rating VII (Venturia inaequalis): 0 (less than 50% disease control)
disease control rating EGP [2]: 2 (greater than 80% disease control)
disease control rating PIP (Phytophthora infestans): 2 (greater than 80% disease control)
disease control rating AS (Alternaria solani): 0 (less than 50% disease control)
disease control rating PVA (Plasmopara viticola): 0 (less than 50% disease control)
disease control rating LN (Leptosphaeria nodorum): 1 (about 50-80% disease control)
disease control rating PO (Pyricularia oryzae): 1 (about 50-80% disease control)
disease control rating RSI (Rhizoctonia solani): 0 (less than 50% disease control)
disease control rating BCB (Botrytis cinerea): 0 (less than 50% disease control)
disease control rating PHI [3]: 0 (less than 50% disease control)

CCN(CC)C1COC2(CCC(C(C)(C)C)CC2)C1 (centres unmarked) [Compound 68]
disease control rating EGT [1]: 2 (greater than 80% disease control)
disease control rating VII (Venturia inaequalis): 1 (about 50-80% disease control)
disease control rating EGP [2]: 2 (greater than 80% disease control)
disease control rating PIP (Phytophthora infestans): 0 (less than 50% disease control)
disease control rating AS (Alternaria solani): 0 (less than 50% disease control)
disease control rating PVA (Plasmopara viticola): 0 (less than 50% disease control)
disease control rating LN (Leptosphaeria nodorum): 0 (less than 50% disease control)
disease control rating PO (Pyricularia oryzae): 1 (about 50-80% disease control)
disease control rating RSI (Rhizoctonia solani): 0 (less than 50% disease control)
disease control rating BCB (Botrytis cinerea): 0 (less than 50% disease control)
disease control rating PHI [3]: 0 (less than 50% disease control)

CCCCCCN(CCCCCC)C1COC2(CCC(C(C)(C)C)CC2)C1 (centres unmarked) [Compound 69]
disease control rating EGT [1]: 2 (greater than 80% disease control)
disease control rating VII (Venturia inaequalis): 2 (greater than 80% disease control)
disease control rating EGP [2]: 2 (greater than 80% disease control)
disease control rating PIP (Phytophthora infestans): 0 (less than 50% disease control)
disease control rating AS (Alternaria solani): 0 (less than 50% disease control)
disease control rating PVA (Plasmopara viticola): 0 (less than 50% disease control)
disease control rating LN (Leptosphaeria nodorum): 0 (less than 50% disease control)
disease control rating PO (Pyricularia oryzae): 1 (about 50-80% disease control)
disease control rating RSI (Rhizoctonia solani): 0 (less than 50% disease control)
disease control rating BCB (Botrytis cinerea): 0 (less than 50% disease control)
disease control rating PHI [3]: 0 (less than 50% disease control)

CC(C)(C)C1CCC2(CC1)CC(NC1CCCC1)CO2 (centres unmarked) [Compound 70]
disease control rating EGT [1]: 2 (greater than 80% disease control)
disease control rating VII (Venturia inaequalis): 1 (about 50-80% disease control)
disease control rating EGP [2]: 2 (greater than 80% disease control)
disease control rating PIP (Phytophthora infestans): 2 (greater than 80% disease control)
disease control rating AS (Alternaria solani): 1 (about 50-80% disease control)
disease control rating PVA (Plasmopara viticola): 0 (less than 50% disease control)
disease control rating LN (Leptosphaeria nodorum): 0 (less than 50% disease control)
disease control rating PO (Pyricularia oryzae): 0 (less than 50% disease control)
disease control rating RSI (Rhizoctonia solani): 0 (less than 50% disease control)
disease control rating BCB (Botrytis cinerea): 0 (less than 50% disease control)
disease control rating PHI [3]: 0 (less than 50% disease control)

CC(C)(C)C1CCC2(CC1)CC(NC1CC1)CO2 (centres unmarked) [Compound 71]
disease control rating EGT [1]: 2 (greater than 80% disease control)
disease control rating VII (Venturia inaequalis): 1 (about 50-80% disease control)
disease control rating EGP [2]: 2 (greater than 80% disease control)
disease control rating PIP (Phytophthora infestans): 2 (greater than 80% disease control)
disease control rating AS (Alternaria solani): 0 (less than 50% disease control)
disease control rating PVA (Plasmopara viticola): 0 (less than 50% disease control)
disease control rating LN (Leptosphaeria nodorum): 1 (about 50-80% disease control)
disease control rating PO (Pyricularia oryzae): 0 (less than 50% disease control)
disease control rating RSI (Rhizoctonia solani): 0 (less than 50% disease control)
disease control rating BCB (Botrytis cinerea): 0 (less than 50% disease control)
disease control rating PHI [3]: 0 (less than 50% disease control)

CCCCCN(CC)C1COC2(CCC(C(C)(C)C)CC2)C1 (centres unmarked) [Compound 72]
disease control rating EGT [1]: 2 (greater than 80% disease control)
disease control rating VII (Venturia inaequalis): 1 (about 50-80% disease control)
disease control rating EGP [2]: 2 (greater than 80% disease control)
disease control rating PIP (Phytophthora infestans): 0 (less than 50% disease control)
disease control rating AS (Alternaria solani): 0 (less than 50% disease control)
disease control rating PVA (Plasmopara viticola): 0 (less than 50% disease control)
disease control rating LN (Leptosphaeria nodorum): 0 (less than 50% disease control)
disease control rating PO (Pyricularia oryzae): 0 (less than 50% disease control)
disease control rating RSI (Rhizoctonia solani): 0 (less than 50% disease control)
disease control rating BCB (Botrytis cinerea): 0 (less than 50% disease control)
disease control rating PHI [3]: 0 (less than 50% disease control)

CCCCCN(CCC)C1COC2(CCC(C(C)(C)C)CC2)C1 (centres unmarked) [Compound 73]
disease control rating EGT [1]: 2 (greater than 80% disease control)
disease control rating VII (Venturia inaequalis): 0 (less than 50% disease control)
disease control rating EGP [2]: 2 (greater than 80% disease control)
disease control rating PIP (Phytophthora infestans): 0 (less than 50% disease control)
disease control rating AS (Alternaria solani): 0 (less than 50% disease control)
disease control rating PVA (Plasmopara viticola): 0 (less than 50% disease control)
disease control rating LN (Leptosphaeria nodorum): 0 (less than 50% disease control)
disease control rating PO (Pyricularia oryzae): 0 (less than 50% disease control)
disease control rating RSI (Rhizoctonia solani): 0 (less than 50% disease control)
disease control rating BCB (Botrytis cinerea): 1 (about 50-80% disease control)
disease control rating PHI [3]: 0 (less than 50% disease control)

CCCCCN(CCCC)C1COC2(CCC(C(C)(C)C)CC2)C1 (centres unmarked) [Compound 74]
disease control rating EGT [1]: 2 (greater than 80% disease control)
disease control rating VII (Venturia inaequalis): 0 (less than 50% disease control)
disease control rating EGP [2]: 2 (greater than 80% disease control)
disease control rating PIP (Phytophthora infestans): 0 (less than 50% disease control)
disease control rating AS (Alternaria solani): 0 (less than 50% disease control)
disease control rating PVA (Plasmopara viticola): 0 (less than 50% disease control)
disease control rating LN (Leptosphaeria nodorum): 0 (less than 50% disease control)
disease control rating PO (Pyricularia oryzae): 0 (less than 50% disease control)
disease control rating RSI (Rhizoctonia solani): 0 (less than 50% disease control)
disease control rating BCB (Botrytis cinerea): 0 (less than 50% disease control)
disease control rating PHI [3]: 0 (less than 50% disease control)

CCCCCN(CC(C)C)C1COC2(CCC(C(C)(C)C)CC2)C1 (centres unmarked) [Compound 75]
disease control rating EGT [1]: 2 (greater than 80% disease control)
disease control rating VII (Venturia inaequalis): 0 (less than 50% disease control)
disease control rating EGP [2]: 2 (greater than 80% disease control)
disease control rating PIP (Phytophthora infestans): 0 (less than 50% disease control)
disease control rating AS (Alternaria solani): 0 (less than 50% disease control)
disease control rating PVA (Plasmopara viticola): 0 (less than 50% disease control)
disease control rating LN (Leptosphaeria nodorum): 0 (less than 50% disease control)
disease control rating PO (Pyricularia oryzae): 0 (less than 50% disease control)
disease control rating RSI (Rhizoctonia solani): 0 (less than 50% disease control)
disease control rating BCB (Botrytis cinerea): 2 (greater than 80% disease control)
disease control rating PHI [3]: 0 (less than 50% disease control)
